The data set can be described thus: Solubility in water (observation). The format is physicochemical. The procedure: 4.0 g of levoleucovorin calcium (6.7 mmol) are suspended in 100 ml water. The slurry is heated up to about 40° C. to obtain a clear solution. 1.0 g of zinc acetate dihydrate (4.6 mmol) in 10 ml water is slowly added. A precipitate is formed immediately. After one day the precipitate is separated from the mother liquor.

Each structure is given as a SMILES string.

Consider `Nc1nc2c(c(=O)[nH]1)N(C=O)[C@@H](CNc1ccc(C(=O)N[C@@H](CCC(=O)[O-])C(=O)[O-])cc1)CN2.[Zn+2]` [levoleucovorin zinc], for which the Solubility in water result is on record as “almost insoluble in water”.

Source of the values: patent US9301922B1, “Stable high strength pharmaceutical composition of levoleucovorin” (APROFOL AG, priority 2013, dated 2016).
